Literature values, collected in US10016482B2, “Insulin independence among patients with diabetes utilizing an optimized hamster REG3 gamma peptide” (priority 2014, dated 2018).
Like-named read-outs stand apart in the source and are kept apart here. No end group written: not given here.

Assays:
[1] = system: human extra-islet pancreatic exocrine tissue; settings: in vitro; exocrine ductal tissue separated from endocrine beta cells
[2] = system: patients with type 1 diabetes; settings: for study subjects / patients dropping out of the clinical trials due to local side-effects: man, local injection site reactions (pain, bruising, infection, skin site reactions)
[3] = system: new small islets developing from non-endocrine tissue

## IGLHDPSHGTLPNGS [hamster Reg3 gamma peptide, native 15 amino acid hamster Reg3 gamma peptide]
[1]
  transformation of exocrine ductal tissue: transform into new beta cells
[2]; by day 54, type 1 patients with no baseline c-peptide
  increase in endogenous insulin production: 27%
[2]; listed as 15-amino acid hamster Reg3 gamma peptide
  study subjects / patients dropping out of the clinical trials due to local side-effects: ⅓
[2]; listed as 15 amino acid hamster Reg3gamma peptide
  study subjects / patients dropping out of the clinical trials due to local side-effects: more than ⅓
[2]; listed as hamster Reg3 gamma 15 amino acid peptide
  study subjects / patients dropping out of the clinical trials due to local side-effects: ⅓
[2]; type 1 patients with no detectable c-peptide at baseline
  rise in stimulated c-peptide: 27%
[2]; type 1 patients, within 54 days of usage
  insulin requirements: significant reduction
[3]; five days after treatment
  levels of new islet markers (NGN3, NKX6.1, SOX9, INS): increased levels
[3]; islets developing from non-endocrine tissue
  increase in the volume of new small islets: 2 fold
